Measured values reported in publication PMC11982470, “The 2-methylcitrate cycle and the glyoxylate shunt in Pseudomonas aeruginosa are linked through enzymatic redundancy” (The Journal of Biological Chemistry, 2025).

B1: 2-methylisocitrate lyase PrpB from Pseudomonas aeruginosa (PrpBPa) (enzyme, Pseudomonas aeruginosa PAO1)
chain: MSQTSLTPGQRFREAVATEHPLQVVGTINANHALLAKRAGFKAIYLSGGGVAAGSLGLPDLGISGLDDVLTDVRRITDVCDLPLLVDVDTGFGSSAFNVARTVKSMIKFGAAAMHIEDQVGAKRCGHRPNKEIVSQQEMVDRIKAAVDARSDDSFVIMARTDALAVEGLQAAIDRACACVEAGADMIFPEAMTELAMYKEFAAAVKVPVLANITEFGATPLFTTDELASADVSLVLYPLSAFRAMNKAAENVYTAIRRDGTQKNVIDTMQTRMELYDRIDYHSFEQKLDALFAQKKNA
notes: 2-methylisocitrate lyase PrpB, Pseudomonas aeruginosa PAO1, locus PA0796, PCR-amplified from PAO1 genomic DNA and cloned into pET-19m; 32.1 kDa; In the crystal structures the termini and the active site loop (residues 121-131) are not resolved; also called 2-MICL; PA0796; source: E. coli, purified (Ni-NTA; His6 tag removed with TEV protease); not shown: His6, N-terminal, cleaved

Assays:
PrpBPa = biological target: T1, PrpBPa (Pseudomonas aeruginosa, UniProt Q9I5E2); test: LDH-coupled assay, inhibitor screen, relative activity; assay type: biochemical; settings: 1 mM compound, 5 min preincubation; pH 7.5, Mg2+, DTT, 37 °C
T1 construct: gene prpB; full-length, N-terminal His6 tag TEV-cleaved (pET-19m), expressed in E. coli; homotetramer (dimer of dimers)
T1 sequence (Q9I5E2 1-298): B1 chain

AceAPa (ICLPa) [1] = biological target: T2, AceAPa (ICLPa) (Pseudomonas aeruginosa, UniProt Q9I0K4); test: LDH-coupled assay, NADH oxidation at […] nm; assay type: biochemical; settings: 50 mM Hepes pH 7.5, 2.5 mM MgCl2, 5 mM DTT, 37 °C; racemic threo substrate
T2 construct: gene PA2634; full-length, N-terminal His6 tag TEV-cleaved (pET-19m), expressed in E. coli
T2 sequence (Q9I0K4 1-531): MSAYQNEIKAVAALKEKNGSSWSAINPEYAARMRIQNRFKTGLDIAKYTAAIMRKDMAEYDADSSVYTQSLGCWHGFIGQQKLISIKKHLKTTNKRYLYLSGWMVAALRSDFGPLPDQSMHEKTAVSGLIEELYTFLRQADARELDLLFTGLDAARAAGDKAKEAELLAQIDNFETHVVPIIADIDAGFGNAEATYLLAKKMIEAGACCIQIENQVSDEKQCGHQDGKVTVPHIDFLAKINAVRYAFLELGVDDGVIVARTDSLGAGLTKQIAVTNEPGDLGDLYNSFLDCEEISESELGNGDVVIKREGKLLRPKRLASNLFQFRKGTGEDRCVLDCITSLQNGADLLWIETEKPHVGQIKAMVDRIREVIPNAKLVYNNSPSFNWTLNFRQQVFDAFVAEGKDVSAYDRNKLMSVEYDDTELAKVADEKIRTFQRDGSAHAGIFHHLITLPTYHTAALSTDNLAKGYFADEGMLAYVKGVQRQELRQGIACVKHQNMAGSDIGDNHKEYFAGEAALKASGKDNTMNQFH

AceAPa (ICLPa) [2] = biological target: T2, AceAPa (ICLPa); test: phenylhydrazine-based isocitrate lyase assay, […] nm; assay type: biochemical; settings: 4 mM DL-isocitric acid, 25 mM imidazole pH 7.0, 10 mM EDTA, 5 mM MgCl2
purified protein = substrate: CC(O)(C(=O)O)C(CC(=O)O)C(=O)O; test: purified protein; assay type: biochemical, Pseudomonas aeruginosa; settings: 50 mM Hepes pH 7.5, 2.5 mM MgCl2, 5 mM DTT, 37 °C, DTT-pretreated enzyme, racemic threo substrate
[3] = biological target: the molecule itself; test: crystal structure; apo-PrpBPa (1.8 Å) and PrpBPa with Mg2+/pyruvate (1.76 Å, crystal soak); tetramer in the asymmetric unit; crystals from Tris-HCl pH 8.5, PEG 4000, LiSO4, 5 mM DTT, 19 °C

Molecule | relative activity at 1 mM (PrpBPa) | other results
O=C(O)/C=C(/CC(=O)O)C(=O)O [cis-aconitic acid] | α-ketoglutarate, cis-aconitic acid, and D-glyceraldehyde 3-phosphate were all potent inhibitors of PrpBPa | 
O=C(O)/C=C\C(=O)O [Maleic acid] | Maleic acid was a nonphysiological inhibitor | 
CC(O)(C(=O)O)C(CC(=O)O)C(=O)O (racemic) [threo-2-methylisocitrate] |  | LDH-coupled assay, NADH oxidation at 340 nm (AceAPa (ICLPa) [1]): purified AceAPa demonstrated robust 2-MICL activity in vitro
O=C(O)CC[N+](=O)[O-] [3-nitropropionic acid] | 3-nitropropionic acid was also a potent inhibitor of PrpBPa | 
O=C(O)CC(C(=O)O)C(O)C(=O)O (racemic) [DL isocitric acid] |  | phenylhydrazine-based isocitrate lyase assay, 324 nm (AceAPa (ICLPa) [2]): could catalyze the cleavage of isocitrate into glyoxylate and succinate
O=C[C@H](O)COP(=O)(O)O [D-glyceraldehyde 3-phosphate] | α-ketoglutarate, cis-aconitic acid, and D-glyceraldehyde 3-phosphate were all potent inhibitors of PrpBPa | 
O=C(O)CCC(=O)C(=O)O [α-ketoglutarate] | α-ketoglutarate, cis-aconitic acid, and D-glyceraldehyde 3-phosphate were all potent inhibitors of PrpBPa | 
B1 |  | Km (purified protein): 632 ± 158 µM; kcat (purified protein): 48.2 ± 4.2 s⁻¹; stoichiometry N [3]: 4
